Test results published in patent publication US6814960B1, “Hydroxystilbene compounds used as microbicidal active substances” (Ciba Specialty Chemicals Corporation, priority 1998, dated 2004).

Assays:
Assay in all cases: MIC in the agar diffusion test
Type in all cases: cell-based
[1] = system: Pseudomonas aeruginosa CIP A-22; conditions: Mueller-Hinton agar, 24 hours at 37° C., solution in EtOH
Text: (§1) Determination of the Minimum Inhibiting Concentration (MIC) in the Agar Diffusion Test

[2] = system: Escherichia coli NCTC 8196; conditions: Mueller-Hinton agar, 24 hours at 37° C., (101), (103) solution in EtOH, (102) in DMSO
Text: as §1

[3] = system: Candida albicans ATCC 10231; conditions: Mueller-Hinton agar, 24 hours at 37° C., (101), (103) solution in EtOH, others in DMSO
Text: as §1

[4] = system: Aspergillus niger ATCC 6275; conditions: Aspergillus niger, ATCC6275, 72 h; Sabouraud 4% glucose agar, 3 days at 28° C.; (101) solution in EtOH, others in DMSO; read-out: MIC A. niger
Text: as §1

[5] = system: Staphylococcus aureus ATCC 9144; conditions: Mueller-Hinton agar, 24 hours at 37° C., (101), (103) solution in EtOH, others in DMSO
Text: as §1

[6] = system: Corynebacterium xerosis ATCC 373; conditions: Mueller-Hinton agar, 24 hours at 37° C.; (103) solution in EtOH
Text: as §1

Question: Which results are given for Oc1cc(O)cc(C=Cc2ccccc2)c1 [Compound of formula (101), 3,5-dihydroxystilbene]?
Answer: MIC ([1]; Pseudomonas aeruginosa, CIPA22, read-out: MIC P. aeruginosa): 100 µg/mL; MIC ([2]; Escherichia coli, NCTC8196, read-out: MIC E. coli): 100 µg/mL; MIC ([3]; Candida albicans, ATCC10231, read-out: MIC C. albicans): 100 µg/mL; MIC [4]: 100 µg/mL; MIC ([5]; Staphylococcus aureus, ATCC9144, read-out: MIC S. aureus): 100 µg/mL

Question: Oc1ccc(/C=C/c2cc(O)cc(O)c2)cc1 [Compound of formula (103)] was tested. Which “MIC P. aeruginosa” value [1] did it give?
Answer: Its value is 600 ppm.

Question: And the “MIC E. coli” value [2]?
Answer: The value was 600 ppm.

Question: What about the “MIC C. albicans” value [3] of the same molecule?
Answer: The value was 600 ppm.

Question: What about the “MIC C. xerosis” value [6] of the same molecule?
Answer: The value was 100 ppm.

Question: And the “MIC S. aureus” value [5]?
Answer: Its value is 600 ppm.
